This test concerns bioluminescent sensor strain Escherichia coli MT102 (pSB403). The experiment in a line: Biosensor assay: quorum sensing inhibition, bioluminescence of the sensor strain. As to conditions: Escherichia coli, 4 h, 3oxo-C6-HSL 100 nM; bioluminescence after 4 hours at 30° C. It is filed as cell-based. The procedure:
Quorum sensing inhibition of the compounds was investigated with the aid of the bioluminescent sensor strain Escherichia coli MT102 (pSB403) (Winson et al., FEMS Microbiol. Lett. 163:185-92, 1998). Plasmid pSB403 contains the Photobacterium fischeri luxR gene together with the […] promoter region as a transcriptional fusion to the bioluminescence genes luxCDABE of Photorhabdus luminescence.
Inhibitory studies were conducted in a microtitre dish assay as follows: the E. coli sensor strain grown over night in LB medium (Sambrook et al., Molecular Cloning: A Laboratory Manual. 2nd Edn. Cold Spring Harbor Laboratory, New York, 1989) was diluted 1:4 and grown for another 1 hour at 30° C. After addition of 3oxo-C6-HSL (final concentration 100 nM) 100 μl of an exponential culture suspension were filled in the wells of a FluoroNunc Polysorp microtitre dish. The test compounds were added to the culture in different concentrations and bioluminescence was measured after 4 hours of incubation at 30° C. with a Lamda Fluoro 320 Plus reader (Bio-Tek Instruments). Inhibitor-mediated reduction of light emission was correlated with the value obtained without addition of the test compounds. IC50 values (concentration of inhibitor required for 50% inhibition of the signal compared to the signal without inhibitor) were determined by using a fitting function after drawing a graph of the activities of eight different inhibitor concentrations.
Regarding `O=C(NNC(=O)c1sccc1Br)c1ccco1` [Compound 39, Furan-2-carboxylic acid N′-(3-bromo-thiophene-2-carbonyl)-hydrazide], the IC50 is 1 to 50 µM.

As for `COc1cscc1C(=O)NNC(=O)c1ccc(Cl)cc1` [Compound 30, 4-Chloro-benzoic acid N′-(4-methoxy-thiophene-3-carbonyl)-hydrazide], the IC50 was above 100 µM.

`CCCCCCC(=O)CC(=O)Nc1ccc(C(=O)OC)o1` [Compound 138, 5-(3-Oxo-nonanoylamino)-furan-2-carboxylic acid methyl ester] showed an IC50 above 100 µM.

The compound `Cc1cc(C(=O)Nc2cccnc2)cc(Cl)n1` [Compound 11, 2-Chloro-6-methyl-N-pyridin-3-yl-iso-nicotinamide] displayed an IC50 of 1 to 50 µM.

`O=C(NNC(=O)c1ccc(Cl)s1)c1cccs1` [Compound 52, Thiophene-2-carboxylic acid N′-(5-chloro-thiophene-2-carbonyl)-hydrazide] showed an IC50 of 50 to 100 µM.

As to `O=C(NNC(=O)c1ccc(Br)s1)c1cccs1` [Compound 59, Thiophene-2-carboxylic acid N′-(5-bromo-thiophene-2-carbonyl)-hydrazide], the IC50 is 1 to 50 µM.

Compound `CCCCCCC(=O)NNC(=O)c1scc(C)c1Cl` [Compound 81, 3-Chloro-4-methyl-thiophene-Z-carboxylic acid N′-heptanoyl-hydrazide] came in with an IC50 of 1 to 50 µM.

Regarding `Cn1nc(-c2ccc(Cl)cc2)cc1NC(=O)c1cccs1` [Compound 14, Thiophene-2-carboxylic acid [5-(4-chloro-phenyl)-2-methyl-2H-pyrazol-3-yl]-amide], the IC50 fell in the range of 1 to 50 µM.

In turn, `CCCCCNC(=O)NNC(=O)c1cc(Br)c(Br)s1` [Compound 101, 1-(4,5-Dibromo-thiophene-2-carbonyl)-4-pentyl-semicarbazide] yielded an IC50 above 100 µM.

`CCCCCCC(=O)CC(=O)Nc1ccnn1C` [Compound 114, 3-Oxo-nonanoic acid (2methyl-2H-pyrazol-3-yl)-amide]: the IC50 is above 100 µM.

With `CCCCCCCCCC(=O)CC(=O)Nc1ccnn1C` [Compound 115, 3-Oxo-dodecanoic acid (2-methyl-2H-pyrazol-3-yl)-amide], the IC50 was above 100 µM.

Compound `CCCCCCC(=O)CC(=O)Nc1ccn[nH]1` [Compound 113, 3-Oxo-nonanoic acid (2H-pyrazol-3-yl)-amide] displayed an IC50 above 100 µM.

Regarding `COc1c(C(=O)NNC(=O)c2ccc(C)s2)csc1Br` [Compound 53, 5-Bromo-4-methoxy-thiophene-3-carboxylic acid N′-(5-methyl-thiophene-2-carbonyl)-hydrazide], the IC50 was in the range of 1 to 50 µM.

`CCOc1ccsc1C(=O)NNC(=O)c1ccco1` [Compound 37, Furan-2-carboxylic acid N′-(3-ethoxy-thiophene-2-carbonyl)-hydrazide] displayed an IC50 of 50 to 100 µM.

For `O=C(NNC(=O)c1sc2ccccc2c1Cl)Nc1cc(Cl)nc(Cl)c1` [Compound 111, 1-(3-Chloro-benzo[b]thiophen-2-carbonyl)-4-(2,6-dichloro-pyridinyl)-semicarbazide], the IC50 was above 100 µM.

`O=C(NNS(=O)(=O)c1ccc(Cl)s1)c1cccs1` [Compound 97, N′-(5-Chloro-thiophen-2-sulfonyl)-thiophene-2-carboxylic acid hydrazide] showed an IC50 of 1 to 50 µM.

For `O=C(Nc1ccc(Br)cn1)c1cc(Cl)nc(Cl)c1` [Compound 10], the IC50 was above 100 µM.

Turning to `Cn1nccc1NC(=O)c1cnc(Cl)nc1C(F)(F)F` [Compound 1, 2-Chloro-4-trifluoromethyl-pyrimidine-5-carboxylic acid (2-methyl-2H-pyrazol-3-yl)-amide], the IC50 lay in the range of 1 to 50 µM.

In turn, `O=C(NNC(=O)c1cccs1)c1ccsc1` [Compound 47, Thiophene-3-carboxylic acid N′-(thiophene-2-carbonyl)-hydrazide] registered an IC50 of 1 to 50 µM.

With `Cc1nc(C(F)(F)F)ccc1C(=O)NNC(=O)c1cccs1` [Compound 27, 2-Methyl-6-trifluoromethyl-nicotinic acid N′-(thiophene-2-carbonyl)-hydrazide], the IC50 lay in the range of 1 to 50 µM.

With `CCCCCCC(=O)CC(=O)Nc1cc(C)nn1C` [Compound 118, 3-Oxo-nonanoic acid (2,5-dimethyl-2H-pyrazol-3-yl)-amide], the IC50 is above 100 µM.

Take `Cc1cc(C(=O)NNC(=O)c2sc3ccccc3c2Cl)n(C)n1` [Compound 64, 2,5-Dimethyl-2H-pyrazole-3-carboxylic acid N′-(3-chloro-benzo[b]thiophene-2-carbonyl)-hydrazide]: the IC50 is above 100 µM.

On to `O=C(CCC1CCCC1)NNC(=O)c1ccco1` [Compound 90, Furan-2-carboxylic acid N′-(3-cyclopentyl-propionyl)-hydrazide], for which the IC50 lay in the range of 1 to 50 µM.

`CCOc1ccsc1C(=O)NNC(=O)c1sccc1Cl` [Compound 44, 3-Chloro-thiophene-2-carboxylic acid N′-(3-ethoxy-thiophene-2-carbonyl)-hydrazide]: the IC50 is above 100 µM.

`Cc1cc(C(=O)NNC(=O)c2cccs2)n(C)n1` [Compound 66, 2,5-Dimethyl-2H-pyrazole-3-carboxylic acid N′-(thiophene-2-carbonyl)-hydrazide] returned an IC50 above 100 µM.

`CCCCCCCCCC(=O)CC(=O)Nc1cc(C)ns1` [Compound 126, 3-Oxo-dodecanoic acid (3-methyl-isothiazol-5-yl)-amide]: the IC50 is above 100 µM.

`O=C(NNc1nccc(C(F)(F)F)n1)c1cccs1` [Compound 25, Thiophene-2carboxylic acid N′-(4-trifluoromethyl-pyrimidin-2-yl)-hydrazide] showed an IC50 of 1 to 50 µM.

Turning to `CCCCCCC(=O)NNC(=O)c1ccc(Br)s1` [Compound 84, 5-Bromo-thiophene-2-carboxylic acid N′-heptanoyl-hydrazide], the IC50 was 1 to 50 µM.

`COc1c(C(=O)NNC(=O)c2cccs2)csc1Br` [Compound 42, Thiophene-2-carboxylic acid N′-(5-bromo-4-methoxy-thiophene-3-carbonyl)-hydrazide] showed an IC50 of 1 to 50 µM.

For `O=C(Nc1ccc(OC(F)(F)F)cc1)c1cnc(Cl)nc1C(F)(F)F` [Compound 7, 2-Chloro-4-trifluoromethyl-pyrimidine-5-carboxylic acid (4-trifluoromethoxy-phenyl)-amide], the IC50 was in the range of 1 to 50 µM.

In turn, `Cc1ccccc1NC(=O)NNC(=O)c1sc2ccccc2c1Cl` [Compound 112, 1-(3-Chloro-benzo[b]thiophene-2-carbonyl)-4-o-tolyl-semi-carbazide] yielded an IC50 above 100 µM.

In turn, `CCCCCCC(=O)NNC(=O)c1cccs1` [Compound 79, Thiophene-2-carboxylic acid N′-heptanoyl-hydrazide] had an IC50 of 1 to 50 µM.

Turning to `Cc1csc(C(=O)NNC(=O)Nc2ccc(Br)cc2)c1Cl` [Compound 106, 4-(4-Bromo-phenyl)-1-(3-chloro-4-methyl-thiophene-2-carbonyl)-semicarbazide], the IC50 fell in the range of 1 to 50 µM.

As to `CCCCCCC(=O)CC(=O)Nc1nc(C)co1` [Compound 134, 3-Oxo-nonanoic acid (4-methyl-oxazol-2-yl)-amide], the IC50 was above 100 µM.

Compound `Cn1nc(C(C)(C)C)cc1C(=O)NNC(=O)c1ccc(Cl)s1` [Compound 69, 5-tert-Butyl-2-methyl-2H-pyrazole-3-carboxylic acid N′-(5-chloro-thiophene-2-carbonyl)-hydrazide] returned an IC50 of 1 to 50 µM.

In the case of `CCn1nc(C)c(Br)c1C(=O)Nc1ccnn1C` [Compound 12, 4-Bromo-2-ethyl-5-methyl-2H-pyrazole-3-carboxylic acid (2-methyl-2H-pyrazol-3-yl)-aide], the IC50 lay within 1 to 50 µM.

With `O=C(NNC(=O)c1sc2ccccc2c1Cl)c1cccs1` [Compound 60, 3-Chloro-benzo[b]thiophene-2-carboxylic acid N′-(thiophene-2-carbonyl)-hydrazide], the half-maximal inhibitory concentration (IC50) is 1 to 50 µM.

Regarding `O=C(NNC(=O)c1cccs1)c1ccc(OC(F)(F)F)cc1` [Compound 29, 4-Trifluoromethoxy-benzoic acid N′-(thiophene-2-carbonyl)-hydrazide], the IC50 was above 100 µM.

For the compound `CCCCCCC(=O)CC(=O)Nc1cc(C)ns1` [Compound 125, 3-Oxo-nonanoic acid (3-methyl-isothiazol-5-yl)-amide], the IC50 was above 100 µM.

In turn, `CCOc1ccsc1C(=O)NNC(=O)c1sccc1Br` [Compound 56, 3-Bromo-thiophene-2-carboxylic acid N′-(3-ethoxy-thiophene-2-carbonyl)-hydrazide] returned an IC50 of 1 to 50 µM.

`CCCCCCC(=O)CC(=O)Nc1scc(C)c1C(=O)OCC` [Compound 123, 4-Methyl-2-(3-oxo-nonanoylamino)-thiophene-3-carboxylic acid ethyl ester]: the IC50 is above 100 µM.

`CCCC(=O)NNS(=O)(=O)c1ccc(Cl)s1` [Compound 98, Butyric acid N′-(5-chloro-thiophen-2-sulfonyl)-hydrazide]: the IC50 lay within 50 to 100 µM.

`O=C(NNC(=O)c1cc(Br)c(Br)s1)Nc1cccc(C(F)(F)F)c1` [Compound 104, 1-(4,5-Dibromo-thiophene-2-carbonyl)-4-(3-trifluoromethyl-phenyl)-semi-carbazide] displayed an IC50 of 1 to 50 µM.
